Where two headings read alike, the source gives them in different places.
Experiments:
[1] = test system: IL-1β; assay: Mouse acute peritonitis model (LPS/ATP), IL-1β in peritoneal lavage fluid and blood; type: in vivo, C57BL/6 mice; details: Mus musculus, 10 mg/kg oral, vs vehicle group
Procedure: Test Example 2: Mouse Acute Peritonitis Model Evaluation Experiment
Male C57BL/6 mice were orally administered with a 10 mg/kg dose of the test compound or control vehicle, and then injected intraperitoneally with 1 μg of E. coli 055: B5 ultrapure lipopolysaccharide (LPS) suspension 1 h later, followed by an intraperitoneal injection of 0.5 ml of 30 mM disodium salt ATP suspension (in PBS, the pH of the ATP solution was adjusted to 7.2 before injection) 2 h later. After 30 min, all animals would be euthanized by carbon dioxide, and blood and peritoneal lavage fluid would be collected. The peritoneal lavage fluid was kept at 4° C.
Preparation of peritoneal lavage fluid: The peritoneal cavity would be lavaged with ice-cold PBS (3 mL) containing 25 U/mL heparin and 10% heat-inactivated FBS. Prior to use, one tablet of the protease inhibitor mixture was added per 50 mL of buffer. The collected lavage fluid would be centrifuged (centrifugation conditions: 1000g, 4° C., 10 min) to remove cells and cell debris, and the clarified samples would be stored at −80° C. for measurement of cytokine IL-1β.
The mouse IL-1β/IL-1F2 DuoSet ELISA kit (R&D Systems) was used to measure the changes in IL-1β cytokine levels in peritoneal lavage fluid and serum. By comparing with the Vehical group, the inhibition rate of the compound on IL-1β was calculated.

[2] = molecular target: T1, NLRP3 (Homo sapiens, UniProt Q96P20); assay: IC50 of NLRP3 inhibitors in reducing IL-1β secretion by THP-1 cells (PMA, LPS, nigericin; ELISA); type: cell-based; details: compound + nigericin 1 h
T1 construct: endogenous in cells; host or cells: THP-1 (human monocyte, PMA-differentiated, LPS-primed, nigericin-stimulated)
T1 sequence (Q96P20 whole entry): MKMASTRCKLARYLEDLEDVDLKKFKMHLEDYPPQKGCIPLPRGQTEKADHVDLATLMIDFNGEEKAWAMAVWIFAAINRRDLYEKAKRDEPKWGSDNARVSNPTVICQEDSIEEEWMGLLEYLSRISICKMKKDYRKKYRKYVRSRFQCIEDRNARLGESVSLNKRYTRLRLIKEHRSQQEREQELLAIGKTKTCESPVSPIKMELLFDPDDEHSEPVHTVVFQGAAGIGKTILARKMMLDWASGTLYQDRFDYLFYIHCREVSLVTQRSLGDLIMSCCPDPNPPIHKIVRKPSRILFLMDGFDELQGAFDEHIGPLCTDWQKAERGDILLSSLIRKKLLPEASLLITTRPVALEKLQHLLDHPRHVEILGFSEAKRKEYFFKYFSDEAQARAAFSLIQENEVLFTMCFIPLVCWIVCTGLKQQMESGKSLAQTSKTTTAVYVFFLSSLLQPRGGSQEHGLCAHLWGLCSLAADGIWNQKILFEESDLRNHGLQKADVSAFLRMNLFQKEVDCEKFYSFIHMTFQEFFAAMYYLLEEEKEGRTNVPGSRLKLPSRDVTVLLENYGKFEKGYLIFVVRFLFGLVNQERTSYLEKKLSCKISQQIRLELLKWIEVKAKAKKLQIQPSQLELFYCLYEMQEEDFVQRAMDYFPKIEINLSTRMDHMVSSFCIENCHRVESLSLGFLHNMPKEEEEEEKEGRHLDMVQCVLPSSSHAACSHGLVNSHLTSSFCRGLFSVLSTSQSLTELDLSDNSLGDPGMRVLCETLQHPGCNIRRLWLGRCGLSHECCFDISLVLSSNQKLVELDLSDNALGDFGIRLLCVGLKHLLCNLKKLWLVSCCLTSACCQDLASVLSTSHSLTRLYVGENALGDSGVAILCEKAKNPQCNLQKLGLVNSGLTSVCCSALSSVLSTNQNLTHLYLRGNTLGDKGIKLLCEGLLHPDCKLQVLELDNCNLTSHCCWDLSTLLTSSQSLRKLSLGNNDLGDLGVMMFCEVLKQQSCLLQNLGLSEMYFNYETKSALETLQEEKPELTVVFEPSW
Procedure: Test Example 1 Experiment on Detection of IC50 of NLRP3 Inhibitors in Reducing the Level of IL-1β Secretion by THP-1 Cells
In this experiment, we use the human monocyte THP-1 to study the inhibitory activity of NLRP3 inhibitor on the secretion of IL-Iβ by cells. Human THP-1 cells are treated with crotonol-12-tetradecanoate-13-acetate (PMA) to differentiate into mature macrophage models. Then, according to the two stages of inflammasome formation in cells (assembly and activation), the cells are stimulated with lipopolysaccharide (LPS) and nigericin in turn, ultimately promoting the extracellular release of IL-1β by THP-1 cells. The first stage of inflammasome formation involves stimulating cells with LPS (lipopolysaccharide), an agonist of the Toll-like receptor TLR4, to activate the expression of the inflammasome-associated proteins NLRP3, caspase 1, and pro-IL-1β, a precursor of IL-1β. The second stage of inflammasome formation involves the addition of the potassium ion carrier nigericin, which causes a series of membrane potential changes in THP-1 cells, destroys the cell membrane structure, causes the efflux of cellular potassium ions, further stimulates the oligomerization of NLRP3 monomers to form NLRP3 oligomers, and begins to recruit ASC and pro-caspase-1 to assemble the NLRP3 inflammasome complex containing a large amount of pro-caspase-1. The pro-caspase-1 on the activated NLRP3 inflammasome is enzymatically self-activated to form a large amount of active caspase-1. The activated caspase-1 further enzymatically promotes the conversion of pro-IL-1β into mature IL-1β that can be secreted.
(1) Cell suspensions were collected. The cells were centrifuged at 1000 rpm for 4 min, the supernatant was discarded, the cells were resuspended with 1 mL of test medium, and then the cell culture medium was gently pipetted up and down with a pipette and its tip to break up the cell aggregates. After counting the cells, the THP-1 cells were resuspended with complete RPMI medium 1640 containing PMA and seeded into 96-well plates and cultured in a 37° C., 5% CO2 incubator for 72 h.
(2) The culture medium was taken out from each well with an automatic plate washer dispenser EL406 and each well was rinsed twice with PBS. To each well, 96 μL of RPMI 1640 medium containing LPS was added. The cells were cultured in a 37° C., 5% CO2 incubator for 4 h.
(3) To each well, 2 μL of the compound and 2 μL of nigericin sodium salt were added, and the final compound concentration selected was 5000 nM, 1000 nM, 200 nM, 40 nM, 8 nM, 1.6 nM, 0.32 nM, 0 nM, respectively. The cells were cultured in a 37° C., 5% CO2 incubator for 1 h.
(4) An appropriate amount of supernatant was taken out, diluted 100 times, and the content of IL-1β in the supernatant was detected using Human IL-1 beta Valukine ELISA kit.

[3] = test system: mouse NASH model; assay: Mouse NASH model test (HFD + fructose), combination with semaglutide; type: in vivo, mice; details: low/high dose semaglutide alone
Procedure: Test Example 6 Mouse NASH Model Test
After the animals arrived and acclimatized for 1 week, they were randomly divided into 2 groups. 48 mice were fed a high-fat diet (HFD) and had free access to 15% fructose water (w/w). After the animals were fed for 20 weeks, they were fasted for 6 h, and fasting blood glucose (FBG) was monitored by a blood glucose meter. Orbital blood was taken from all animals, and serum was collected by centrifugation to detect serum ALT levels. Animals were randomly divided into 6 groups according to their body weight, FBG and ALT levels. After that, the high fat feed (HFD) was replaced with the modified high fat feed (mHFD), and the mice had free access to 15% fructose water (v/w). The 8 mice in the other group were fed normal diet and water.
The first end point of the experiment: After 8 weeks of administration, the end point body weight was recorded and the animals were fasted for 6 h, and fasting blood glucose was measured with a blood glucose meter. The mice were then euthanized by CO2 and serum was collected by orbital blood sampling and stored at −80° C. for insulin and biochemical analysis. The animal's liver was taken and the liver weight was recorded. The liver was divided into four parts, one part was quick-frozen in liquid nitrogen for biochemical analysis, one part was placed in tissue fixative for pathological analysis, one part was stored in RNAlater for qPCR detection (backup for later use), and one part was quick-frozen in liquid nitrogen for possible subsequent detection.
The second end point of the experiment: 3 mice were kept in each group for 6 weeks for further observation. The end point body weight was recorded and the mice were fasted for 6 h. Fasting blood glucose was tested with a blood glucose meter. The mice were then euthanized by CO2 and serum was collected by orbital blood sampling and stored at −80° C. for insulin and biochemical analysis. The animal's liver was taken and the liver weight was recorded. The liver was divided into four parts, one part was quick-frozen in liquid nitrogen for biochemical analysis, one part was placed in tissue fixative for pathological analysis, one part was stored in RNAlater for qPCR detection (backup for later use), and one part was quick-frozen in liquid nitrogen for subsequent detection.

[4] = read-out: IL-1β Peritoneal lavage fluid (inhibition rate)
[5] = read-out: IL-1β Plasma (inhibition rate)

Row | IC50 [2] [nM] | Compound | inhibition at 10 mg/kg [1, 4] [%] | inhibition at 10 mg/kg [1, 5] [%] | rebound of body weight after drug withdrawal [3]
1 | 15 | CC#Cc1ccc2c(-c3c(O)cc(Cl)cc3F)nnc(NC[C@H](O)CO)c2c1 [Compound 063, (2S)-3-((4-(4-chloro-2-fluoro-6-hydroxyphenyl)-7-(prop-1-yn-1-yl)phthalazin-1-yl)amino) propan-1,2-diol] | 79 | 74 | –
2 | 18 | CC#Cc1ccc2c(-c3c(O)cc(C(F)(F)F)cc3F)nnc(NC[C@H](O)CO)c2c1 [Compound 064, (2S)-3-((4-(2-fluoro-6-hydroxy-4-(trifluoromethyl)phenyl)-7-(prop-1-yn-1-yl)phthalazin-1-yl)amino) propan-1,2-diol] | 81 | 90 | –
3 | 66 | CC#Cc1ccc2c(-c3ccc(C(F)(F)F)cc3O)nnc(N[C@@H]3COCC[C@H]3O)c2c1 [Compound 067, (3R,4R)-3-((4-(2-hydroxy-4-(trifluoromethyl)phenyl)-7-(prop-1-yn-1-yl)phthalazin-1-yl)amino)tetrahydro-2H-pyran-4-ol] | – | – | –
4 | 39 | CC#Cc1ccc2c(-c3ccc(C(F)(F)F)cc3O)nnc(N[C@@H]3CCCN(C)C3)c2c1 [Compound 068, (R)-2-(4-((1-methylpiperidin-3-yl)amino)-6-(prop-1-yn-1-yl)phthalazin-1-yl)-5-(trifluoromethyl)phenol] | – | – | –
5 | 31 | CC#Cc1ccc2c(-c3ccc(C(F)(F)F)cc3O)nnc(NCC(C)(C)O)c2c1 [Compound 069, 2-(4-((2-hydroxy-2-methylpropyl)amino)-6-(prop-1-yn-1-yl)phthalazin-1-yl)-5-(trifluoromethyl)phenol] | – | – | –
6 | 42 | CC#Cc1ccc2c(-c3ccc(C(F)(F)F)cc3O)nnc(N[C@@H]3CCC[C@H](O)C3)c2c1 [Compound 070] | – | – | –
7 | 23 | CC#Cc1ccc2c(-c3c(O)cc(C(F)(F)F)cc3F)nnc(NC[C@H](C)O)c2c1 [Compound 071, 3-fluoro-2-(4-(((S)-2-hydroxypropyl)amino)-6-(prop-1-yn-1-yl)phthalazin-1-yl)-5-(trifluoromethyl)phenol] | – | – | –
8 | 51 | CC#Cc1ccc2c(-c3ccc(Cl)cc3O)nnc(N[C@@H]3CC(=O)N(CCO)C3)c2c1 [Compound 073, (R)-4-((4-(4-chloro-2-hydroxyphenyl)-7-(prop-1-yn-1-yl)phthalazin-1-yl)amino)-1-(2-hydroxyethyl)pyrrolidin-2-one] | – | – | –
9 | 7.2 | CC#Cc1ccc2c(-c3ccc(Cl)cc3O)nnc(N[C@@H]3CCN(CCO)C3=O)c2c1 [Compound 074, (R)-3-((4-(4-chloro-2-hydroxyphenyl)-7-(prop-1-yn-1-yl)phthalazin-1-yl)amino)-1-(2-hydroxyethyl)pyrrolidin-2-one] | – | – | –
10 | 7 | CC#Cc1ccc2c(-c3ccc(Cl)cc3O)nnc(N[C@@H]3CCCN(CCO)C3=O)c2c1 [Compound 075, (R)-3-((4-(4-chloro-2-hydroxyphenyl)-7-(prop-1-yn-1-yl)phthalazin-1-yl)amino)-1-(2-hydroxyethyl) piperidin-2-one] | – | – | –
11 | 35 | CC#Cc1ccc2c(-c3ccc(Cl)cc3O)nnc(N[C@@H]3CCC(=O)N(CCO)C3)c2c1 [Compound 076, (R)-5-((4-(4-chloro-2-hydroxyphenyl)-7-(prop-1-yn-1-yl)phthalazin-1-yl)amino)-1-(2-hydroxyethyl) piperidin-2-one] | – | – | –
12 | 41 | OC[C@@H](O)CNc1nnc(-c2ccc(Cl)cc2O)c2ccc(C#CC3CC3)cc12 [Compound 079, (S)-3-((4-(4-chloro-2-hydroxyphenyl)-7-(cyclopropylethynyl)phthalazin-1-yl)amino) propan-1,2-diol] | 51 | 21 | –
13 | 36 | Oc1cc(Cl)ccc1-c1nnc(N[C@@H]2CCCC(=C(F)F)C2)c2cnccc12 [Compound 080, (R)-5-chloro-2-(4-((3-(difluoromethylene)cyclohexyl)amino)pyridin[3,4-d]pyridazin-1-yl)phenol] | – | – | –
14 | 5.3 | CC(=O)c1ccc2c(-c3ccc(C(F)(F)F)cc3O)nnc(N[C@@H]3CCCC[C@H]3O)c2c1 [Compound 081] | 45 | 61 | –
15 | 32 | CC(=O)c1ccc2c(-c3ccc(C(F)(F)F)cc3O)nnc(NC[C@H](O)CO)c2c1 [Compound 082] | 0 | 12 | –
16 | – | semaglutide [reference compound] | – | – | neither the control compound combined with semaglutide nor the groups of low/high dose semaglutide alone inhibited the rebound of body weight

Source: US20260216182A1, “PYRIDAZINE NLRP3 INHIBITOR COMPOUND, PHARMACEUTICAL COMPOSITION, AND PREPARATION METHOD THEREFOR AND USE THEREOF” (CHANGCHUN GENESCIENCE PHARMACEUTICAL CO., LTD., priority 2022, published 2026)
